Experimental data published in ChEMBL document CHEMBL4680246, “Design, synthesis and biological evaluation of novel O-carbamoyl ferulamide derivatives as multi-target-directed ligands for the treatment of Alzheimer's disease” (Eur J Med Chem, 2020).

Legend:
[1] = Effect on spontaneous alteration behavior in mouse assessed as change in total arm entry at 6 mg/kg by Y-maze test; type: ADME, organism-based; details: in vivo
Cholinesterase [2] = target: T1, Cholinesterase (Homo sapiens, UniProt P06276); assay: Inhibition of human serum BuChE assessed as residual activity at 0.1 times IC50 using acetylcholine iodide as substrate measured after dilution by Ellman's method relative to control
T1 sequence (P06276 whole entry): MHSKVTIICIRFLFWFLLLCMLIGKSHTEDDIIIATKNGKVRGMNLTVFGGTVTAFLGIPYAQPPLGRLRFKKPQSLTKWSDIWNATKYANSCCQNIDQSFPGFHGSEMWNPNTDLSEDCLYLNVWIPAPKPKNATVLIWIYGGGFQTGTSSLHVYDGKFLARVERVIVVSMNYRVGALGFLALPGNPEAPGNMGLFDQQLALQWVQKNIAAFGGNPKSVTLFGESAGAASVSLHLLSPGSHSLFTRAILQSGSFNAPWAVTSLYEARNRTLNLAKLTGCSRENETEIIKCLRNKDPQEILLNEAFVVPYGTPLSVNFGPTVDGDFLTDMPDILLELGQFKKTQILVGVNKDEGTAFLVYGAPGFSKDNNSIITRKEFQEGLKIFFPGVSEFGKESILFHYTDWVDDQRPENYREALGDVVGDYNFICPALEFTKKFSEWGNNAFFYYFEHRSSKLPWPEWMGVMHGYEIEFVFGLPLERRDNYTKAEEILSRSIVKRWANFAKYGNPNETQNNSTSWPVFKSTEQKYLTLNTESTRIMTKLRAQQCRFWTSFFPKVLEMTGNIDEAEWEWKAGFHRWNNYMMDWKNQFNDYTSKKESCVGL

Mus musculus [3] = assay: Improvement in brain cholinergic activity in scopolamine-induced mouse model of amnesia assessed as change in ChAT vitality at 6 mg/kg (reference value: 28.8 U/g); type: functional
Mus musculus [4] = assay: Improvement in cognitive impairment in scopolamine-induced mouse model of amnesia assessed as change in spontaneous alteration at 6 mg/kg by Y-maze test (reference value: 40.8%); type: functional
Cholinesterase [5] = target: T1, Cholinesterase; assay: Inhibition of human serum BuChE assessed as residual activity at IC50 using acetylcholine iodide as substrate measured by Ellman's method relative to control
Cholinesterase [6] = target: T1, Cholinesterase; assay: Pseudo-irreversible inhibition of human serum BuChE assessed as residual activity at 0.1 times IC50 using acetylcholine iodide as substrate measured 240 mins post dilution by Ellman's method relative to control
[7] = Drug uptake in iv dosed mouse cerebellum measured after 60 mins in presence of (E)-4-(3-(3,4-dihydroisoquinolin-2(1H)-yl)-3-oxoprop-1-en-1-yl)-2-methoxyphenyl ethyl(methyl)carbamate by PET imaging analysis; type: ADME, organism-based; details: in vivo
[8] = Drug uptake in iv dosed mouse spleen measured after 60 mins by PET imaging analysis; type: ADME, organism-based; details: in vivo, 1 h
[9] = Drug uptake in iv dosed mouse thalamus measured after 60 mins by PET imaging analysis; type: ADME, organism-based; details: in vivo, 1 h
[10] = Drug uptake in iv dosed mouse cortex measured after 60 mins by PET imaging analysis; type: ADME, organism-based; details: in vivo, 1 h
[11] = Drug uptake in iv dosed mouse liver measured after 30 mins by PET imaging analysis; type: ADME, organism-based; details: in vivo, 0.5 h
[12] = Drug uptake in iv dosed mouse hippocampus measured after 60 mins in presence of (E)-4-(3-(3,4-dihydroisoquinolin-2(1H)-yl)-3-oxoprop-1-en-1-yl)-2-methoxyphenyl ethyl(methyl)carbamate by PET imaging analysis; type: ADME, organism-based; details: in vivo
[13] = Drug uptake in iv dosed mouse thalamus measured after 60 mins in presence of (E)-4-(3-(3,4-dihydroisoquinolin-2(1H)-yl)-3-oxoprop-1-en-1-yl)-2-methoxyphenyl ethyl(methyl)carbamate by PET imaging analysis; type: ADME, organism-based; details: in vivo
[14] = Drug uptake in iv dosed mouse thalamus measured after 60 mins in presence of rivastigmine by PET imaging analysis; type: ADME, organism-based; details: in vivo, 1 h
[15] = Drug uptake in iv dosed mouse brainstem measured after 60 mins by PET imaging analysis; type: ADME, organism-based; details: in vivo, 1 h
[16] = Drug uptake in iv dosed mouse amygdala measured after 60 mins in presence of rivastigmine by PET imaging analysis; type: ADME, organism-based; details: in vivo, 1 h
[17] = Drug uptake in iv dosed mouse amygdala measured after 60 mins by PET imaging analysis; type: ADME, organism-based; details: in vivo, 1 h
[18] = Drug uptake in iv dosed mouse brain measured up to 60 mins in presence of (E)-4-(3-(3,4-dihydroisoquinolin-2(1H)-yl)-3-oxoprop-1-en-1-yl)-2-methoxyphenyl ethyl(methyl)carbamate by PET imaging analysis; type: ADME, organism-based; details: in vivo
[19] = Drug uptake in iv dosed mouse cerebellum measured after 60 mins in presence of rivastigmine by PET imaging analysis; type: ADME, organism-based; details: in vivo, 1 h
[20] = Drug uptake in iv dosed mouse brain measured after 60 mins by PET imaging analysis; type: ADME, organism-based; details: in vivo, 1 h
[21] = Drug uptake in iv dosed mouse cerebellum measured after 60 mins by PET imaging analysis; type: ADME, organism-based; details: in vivo, 1 h
[22] = Drug uptake in iv dosed mouse hypothalamus measured after 60 mins in presence of rivastigmine by PET imaging analysis; type: ADME, organism-based; details: in vivo, 1 h
[23] = Drug uptake in iv dosed mouse brainstem measured after 60 mins in presence of (E)-4-(3-(3,4-dihydroisoquinolin-2(1H)-yl)-3-oxoprop-1-en-1-yl)-2-methoxyphenyl ethyl(methyl)carbamate by PET imaging analysis; type: ADME, organism-based; details: in vivo
[24] = Drug uptake in iv dosed mouse central gray substance of midbrain measured after 60 mins in presence of rivastigmine by PET imaging analysis; type: ADME, organism-based; details: in vivo, 1 h
[25] = Drug uptake in iv dosed mouse heart measured after 5 mins by PET imaging analysis; type: ADME, organism-based; details: in vivo
[26] = Drug uptake in iv dosed mouse cortex measured after 60 mins in presence of (E)-4-(3-(3,4-dihydroisoquinolin-2(1H)-yl)-3-oxoprop-1-en-1-yl)-2-methoxyphenyl ethyl(methyl)carbamate by PET imaging analysis; type: ADME, organism-based; details: in vivo
[27] = Drug uptake in iv dosed mouse central gray substance of midbrain measured after 60 mins by PET imaging analysis; type: ADME, organism-based; details: in vivo, 1 h
[28] = Drug uptake in iv dosed mouse striatum measured after 60 mins by PET imaging analysis; type: ADME, organism-based; details: in vivo, 1 h
[29] = Drug uptake in iv dosed mouse hippocampus measured after 60 mins by PET imaging analysis; type: ADME, organism-based; details: in vivo, 1 h
[30] = Drug uptake in iv dosed mouse brain measured up to 60 mins in presence of rivastigmine by PET imaging analysis; type: ADME, organism-based; details: in vivo, 1 h
[31] = Drug uptake in iv dosed mouse brainstem measured after 60 mins in presence of rivastigmine by PET imaging analysis; type: ADME, organism-based; details: in vivo, 1 h
[32] = Drug uptake in iv dosed mouse brain measured at 2 mins by PET imaging analysis; type: ADME, organism-based; details: in vivo
[33] = Drug uptake in iv dosed mouse hypothalamus measured after 60 mins in presence of (E)-4-(3-(3,4-dihydroisoquinolin-2(1H)-yl)-3-oxoprop-1-en-1-yl)-2-methoxyphenyl ethyl(methyl)carbamate by PET imaging analysis; type: ADME, organism-based; details: in vivo
[34] = Drug uptake in iv dosed mouse hypothalamus measured after 60 mins by PET imaging analysis; type: ADME, organism-based; details: in vivo, 1 h
[35] = Drug uptake in iv dosed mouse amygdala measured after 60 mins in presence of (E)-4-(3-(3,4-dihydroisoquinolin-2(1H)-yl)-3-oxoprop-1-en-1-yl)-2-methoxyphenyl ethyl(methyl)carbamate by PET imaging analysis; type: ADME, organism-based; details: in vivo
[36] = Drug uptake in iv dosed mouse lung measured after 5 mins by PET imaging analysis; type: ADME, organism-based; details: in vivo
[37] = Drug uptake in iv dosed mouse striatum measured after 60 mins in presence of (E)-4-(3-(3,4-dihydroisoquinolin-2(1H)-yl)-3-oxoprop-1-en-1-yl)-2-methoxyphenyl ethyl(methyl)carbamate by PET imaging analysis; type: ADME, organism-based; details: in vivo
[38] = Drug uptake in iv dosed mouse cortex measured after 60 mins in presence of rivastigmine by PET imaging analysis; type: ADME, organism-based; details: in vivo, 1 h
[39] = Drug uptake in iv dosed mouse central gray substance of midbrain measured after 60 mins in presence of (E)-4-(3-(3,4-dihydroisoquinolin-2(1H)-yl)-3-oxoprop-1-en-1-yl)-2-methoxyphenyl ethyl(methyl)carbamate by PET imaging analysis; type: ADME, organism-based; details: in vivo
[40] = Drug uptake in iv dosed mouse hippocampus measured after 60 mins in presence of rivastigmine by PET imaging analysis; type: ADME, organism-based; details: in vivo, 1 h
[41] = Drug uptake in iv dosed mouse striatum measured after 60 mins in presence of rivastigmine by PET imaging analysis; type: ADME, organism-based; details: in vivo, 1 h
[42] = Drug uptake in iv dosed mouse brain measured after 5 mins by PET imaging analysis; type: ADME, organism-based; details: in vivo

Structure (SMILES): CCN(C)C(=O)Oc1cccc([C@H](C)N(C)C)c1 [RIVASTIGMINE]
- Activity [1]: Non-Toxic
- Activity (Cholinesterase [2]): 53.2%
- Activity (Mus musculus [3]): 55.3 U/g
- Activity (Mus musculus [4]): 60.2%
- Activity (Cholinesterase [5]): 48.3%
- Activity (Cholinesterase [6]): 73.3%

Structure (SMILES): CCN(C)C(=O)Oc1ccc(/C=C/C(=O)N2CCc3ccccc3C2)cc1O[11CH3]
- Drug uptake [7]: Not Active
- Drug uptake [8]: 11.49 %ID/cc
- Drug uptake [9]: Active
- Drug uptake [10]: Active
- Drug uptake [11]: 14.46 %ID/cc
- Drug uptake [12]: Not Active
- Drug uptake [13]: Not Active
- Drug uptake [14]: Not Active
- Drug uptake [15]: Active
- Drug uptake [16]: Not Active
- Drug uptake [17]: Active
- Drug uptake [18]: Not Active
- Drug uptake [19]: Not Active
- Drug uptake [20]: Active
- Drug uptake [21]: Active
- Drug uptake [22]: Not Active
- Drug uptake [23]: Not Active
- Drug uptake [24]: Not Active
- Drug uptake [25]: 11.8 %ID/cc
- Drug uptake [26]: Not Active
- Drug uptake [27]: Active
- Drug uptake [28]: -9 %ID/cc
- Drug uptake [29]: -9 %ID/cc
- Drug uptake [30]: Not Active
- Drug uptake [31]: Not Active
- Drug uptake [32]: 8.76 %ID/cc
- Drug uptake [33]: Not Active
- Drug uptake [34]: Active
- Drug uptake [35]: Not Active
- Drug uptake [36]: 4.68 %ID/cc
- Drug uptake [37]: Not Active
- Drug uptake [38]: Not Active
- Drug uptake [39]: Not Active
- Drug uptake [40]: Not Active
- Drug uptake [41]: Not Active
- Drug uptake [42]: 6.21 %ID/cc
